Measurements: patent publication US20080004310A1, “LYOPHILIZED PHARMACEUTICAL COMPOSITION” (priority 2006, published 2008)
Structures can show the parent of a compound that is named as a salt. Where two headings read alike, the source gives them in different places.

Key:
[1] = tested on: patient with erectile dysfunction; experiment: Treatment of a patient having erectile dysfunction by injection of the reconstituted lyophilized composition; assay type: in vivo; conditions: for treatment effect on erectile dysfunction: general method of treatment of Example 3, single lyophilized agent only
Description: In one embodiment, a lyophilized composition may be used to treat a patient having erectile dysfunction. The lyophilized composition is formed by first providing an erectile inducing amount of at least one lyophilized compound selected from papverine hydrochloride, phentolamine mesylate, and alprostadil. The lyophilized composition is then reconstituted with a pharmaceutically acceptable solvent, such as sterilized water, to produce a reconstituted pharmaceutical solution. The reconstituted pharmaceutical solution is then administered to the patient. Once the lyophilized compounds are reconstituted, the reconstituted pharmaceutical solution may be administered to the patient by a variety of methods, including, but not limited to orally or by injection. In one embodiment, the composition is administered by injection. Any suitable method of injection, such as intracavernosal, intravenous, intraarterial, intramuscular, intraperitoneal, intraportal, intradermal or subcutaneous may be used.
A person, 75 kilogram (kg) […] patient is diagnosed with having erectile dysfunction. The patient is instructed to inject the lypholized preparation of 30 mg/ml papaverine, 1.0 mg/ml phentolamine mesylate, and 10 μg/ml alprostadil on a daily basis, if this is the intended frequency of sexual activity. The lyophilized papaverine, phentolamine, and alprostadil are prepared according to Example 1. The patient is examined after one month.
A 70 kg patient is apparently in good health. They present complaints of a loss of sexual desire and frequent erectile dysfunction. They report that although they are periodically interested in initiating sexual relations, on most occasions they are unable to maintain a high level of interest sufficiently long to initiate or to adequately respond to their spouse's initiating sexual activity. […] 1.0 mg/ml of lyophilized phentolamine is given to […]. The reconstituted phentolamine is injected about 0.5 hours before the patient intended to engage in sexual activity. The patient is examined after one month. They report that they take the drug combination 2-3 times per week.
Following the general method of treatment described in Example 3, non-critical variations are made to the composition of Example 3 such that only 10 μg/ml of lyophilized alprostadil is used.
Following the general method of treatment described in Example 3, non-critical variations are made to the composition of Example 3 such that only 30 mg/ml of lyophilized papaverine hydrochloride is used.

[2] = Accelerated aging of lyophilized composition (assay of active components after reconstitution); assay type: physicochemical; conditions: accelerated conditions 40° C./75% RH
Description: Aliquots of the clear solution (3 ml) were filtered through a sterilizing 0.22 um filter into lyophilization vials (5 ml). The filled lyophilization vials were topped, but not sealed, with lyophilization stoppers and freeze-dried according the following procedure. The topped vials were placed into a commercial freeze-drier. The temperature of the drier was lowered to about −40° C. and maintained at that temperature for at least 6 hours. […] Following the three temperature increasing steps, the vials were sealed under vacuum, the freeze-drier was returned to normal atmospheric pressure, and the vials were removed from the freeze-drier. In accelerated aging conditions, the active components of the lyophilized compositions of the present invention have an extended shelf live of as much as 120 days. The accelerated aging data for one, three, and four weeks is set out in Table 1. In Table 1, each week of accelerated aging corresponds to about one month of normal aging. [table]

[3] = general solubility, not lyophilized; cited from earlier work
[4] = physchem
[5] = Week One, each week about one month of normal aging

**Q.** For COc1ccc(Cc2nccc3cc(OC)c(OC)cc23)cc1OC [Papaverine HCl, papaverine hydrochloride], which “treatment effect on erectile dysfunction” value [1] is on record?
**A.** same positive treatment effect

**Q.** And the “% of Expected” value ([2]; Week Four)?
**A.** 78%

**Q.** And the “Assayed Conc.” value ([2]; Week Four)?
**A.** 23.4 mg/mL

**Q.** And the “% of Expected” value ([2]; Week One)?
**A.** 65.7%

**Q.** And the “Assayed Conc.” value [2, 5]?
**A.** 19.7 mg/mL

**Q.** What about the “% of Expected” value ([2]; Week Three) of the same compound?
**A.** 67.7%

**Q.** What about the “Assayed Conc.” value ([2]; Week Three) of the same compound?
**A.** 20.3 mg/mL

**Q.** And the solubility [3]?
**A.** about 30 mg/ml

**Q.** And the solubility [4]?
**A.** ~90 mg/mL

**Q.** With CCCCC[C@H](O)/C=C/[C@H]1[C@H](O)CC(=O)[C@@H]1CCCCCCC(=O)O [Alprostadil, alprostadil] as the compound, how does the “treatment effect on erectile dysfunction” value [1] read?
**A.** same positive treatment effect

**Q.** What about the “% of Expected” value ([2]; Week Four) of the same compound?
**A.** 95%

**Q.** And the “Assayed Conc.” value ([2]; Week Four)?
**A.** 0.0095 mg/mL

**Q.** And the “% of Expected” value ([2]; Week One)?
**A.** 105%

**Q.** What about the “Assayed Conc.” value ([2]; Week One) of the same compound?
**A.** 0.0105 mg/mL

**Q.** And the “% of Expected” value ([2]; Week Three)?
**A.** 100%

**Q.** And the “Assayed Conc.” value ([2]; Week Three)?
**A.** 0.01 mg/mL

**Q.** With Cc1ccc(N(CC2=NCCN2)c2cccc(O)c2)cc1 [Phentolamine Mesylate, phentolamine mesylate] as the compound, how does the maintenance of erection ([1]; 70 kg patient, 1.0 mg/ml, injected about 0.5 hours before sexual activity, 2-3 times per week, examined after one month) read?
**A.** no difficulty maintaining an erection to completion of sexual intercourse

**Q.** And the “sexual desire / motivation” value ([1]; 70 kg patient, 1.0 mg/ml, injected about 0.5 hours before sexual activity, examined after one month)?
**A.** feels motivated to initiate sexual activity

**Q.** What about the “% of Expected” value ([2]; Week Four) of the same compound?
**A.** 100%

**Q.** And the “Assayed Conc.” value ([2]; Week Four)?
**A.** 1.0 mg/mL

**Q.** What about the “% of Expected” value ([2]; Week One) of the same compound?
**A.** 100%

**Q.** What about the “Assayed Conc.” value [2, 5] of the same compound?
**A.** 1.0 mg/mL

**Q.** What about the “% of Expected” value ([2]; Week Three) of the same compound?
**A.** 92%

**Q.** What about the “Assayed Conc.” value ([2]; Week Three) of the same compound?
**A.** .92 mg/mL
